Source: US20220402882A1, “HERBICIDAL COMPOUNDS” (SYNGENTA CROP PROTECTION AG, priority 2019, published 2022)

Tests used:
AMARE = assay: Comparative experiment, POST application; assay type: in vivo, Amaranthus retoflexus
Method: (§1) A comparative experiment is conducted to show the advantage provided by the compounds of the present invention. Thus the biological performance of representative compounds […] Compound 4-460 of the type referred to in WO2012/028579. Results are given as (%) phytotoxicity observed.

SETFA = assay: Comparative experiment, POST application; assay type: in vivo, Setaria faberi
Method: as §1

ABUTH = assay: Comparative experiment, POST application; assay type: in vivo, Abutilon theophrasti
Method: as §1

ZEAMX/maize = assay: Comparative experiment, POST application; assay type: in vivo; conditions: crop
Method: as §1

DIGSA = assay: Comparative experiment, POST application; assay type: in vivo
Method: as §1

ECHCG = assay: Comparative experiment, POST application; assay type: in vivo, Echinochloa crus-galli
Method: as §1

IPOHE = assay: Comparative experiment, POST application; assay type: in vivo, Ipomoea hederacea
Method: as §1

[1] = system: Ipomoea hederacea (IPOHE); assay: Post-emergence glasshouse herbicide test; assay type: in vivo; conditions: 125 g/h, evaluated after 13 days
How it was run: (§2)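 Plants grown in standard soil in pots in a glasshouse (24/16 °C day/night, 14 h light, 65% humidity) were sprayed 1 day after sowing (pre-emergence) or after 8 days (post-emergence) at 125 g/h unless otherwise indicated. Percentage damage was assessed after 13 days and scored on a five-point scale (5=80-100%, 1=0-19%).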

[2] = system: Echinochloa crus-galli (ECHCG); assay: Post-emergence glasshouse herbicide test; assay type: in vivo; conditions: 125 g/h, evaluated after 13 days
How it was run: as §2

[3] = system: Abutilon theophrasti (ABUTH); assay: Post-emergence glasshouse herbicide test; assay type: in vivo; conditions: 125 g/h, evaluated after 13 days
How it was run: as §2

[4] = system: Amaranthus retoflexus (AMARE); assay: Post-emergence glasshouse herbicide test; assay type: in vivo; conditions: 125 g/h, evaluated after 13 days
How it was run: as §2

Setaria faberi (SETFA) [5] = assay: Post-emergence glasshouse herbicide test; assay type: in vivo; conditions: 125 g/h, evaluated after 13 days
How it was run: as §2

[6] = system: Ipomoea hederacea (IPOHE); assay: Pre-emergence glasshouse herbicide test; assay type: in vivo; conditions: 125 g/h, evaluated after 13 days
How it was run: as §2

[7] = system: Echinochloa crus-galli (ECHCG); assay: Pre-emergence glasshouse herbicide test; assay type: in vivo; conditions: 125 g/h, evaluated after 13 days
How it was run: as §2

[8] = system: Abutilon theophrasti (ABUTH); assay: Pre-emergence glasshouse herbicide test; assay type: in vivo; conditions: 125 g/h, evaluated after 13 days
How it was run: as §2

[9] = system: Amaranthus retoflexus (AMARE); assay: Pre-emergence glasshouse herbicide test; assay type: in vivo; conditions: 125 g/h, evaluated after 13 days
How it was run: as §2

Setaria faberi (SETFA) [10] = assay: Pre-emergence glasshouse herbicide test; assay type: in vivo; conditions: 125 g/h, evaluated after 13 days
How it was run: as §2

Row | SMILES | percentage damage caused to the plant, IPOHE [1] | percentage damage caused to the plant, ECHCG [2] | percentage damage caused to the plant, ABUTH [3] | percentage damage caused to the plant, AMARE [4] | percentage damage caused to the plant, SETFA (Setaria faberi (SETFA) [5]) | percentage damage caused to the plant, IPOHE [6] | percentage damage caused to the plant, ECHCG [7] | percentage damage caused to the plant, ABUTH [8] | percentage damage caused to the plant, AMARE [9] | percentage damage caused to the plant, SETFA (Setaria faberi (SETFA) [10]) | further results
1 | Cn1nnnc1NC(=O)c1ccc(C(F)(F)F)c(S(C)(=O)=O)c1Cl [Compound 4-640, reference compound] | – | – | – | – | – | – | – | – | – | – | (%) phytotoxicity observed, AMARE (AMARE; rate 15 g/ha): 90%; (%) phytotoxicity observed, AMARE (AMARE; rate 30 g/ha): 90%; (%) phytotoxicity observed, SETFA (SETFA; rate 15 g/ha): 90%; (%) phytotoxicity observed, SETFA (SETFA; rate 30 g/ha): 90%; (%) phytotoxicity observed, ABUTH (ABUTH; rate 15 g/ha): 90%; (%) phytotoxicity observed, ABUTH (ABUTH; rate 30 g/ha): 90%; (%) phytotoxicity observed, ZEAMX (ZEAMX/maize; rate 15 g/ha): 40%; (%) phytotoxicity observed, ZEAMX (ZEAMX/maize; rate 30 g/ha): 70%; (%) phytotoxicity observed, DIGSA (DIGSA; rate 15 g/ha): 80%; (%) phytotoxicity observed, DIGSA (DIGSA; rate 30 g/ha): 80%; (%) phytotoxicity observed, ECHCG (ECHCG; rate 15 g/ha): 80%; (%) phytotoxicity observed, ECHCG (ECHCG; rate 30 g/ha): 90%; (%) phytotoxicity observed, IPOHE (IPOHE; rate 15 g/ha): 90%; (%) phytotoxicity observed, IPOHE (IPOHE; rate 30 g/ha): 90%
2 | Cn1nnnc1NC(=O)c1ccc(OC(F)F)c(S(C)(=O)=O)c1Cl [Compound 1.003, 2-chloro-4-(difluoromethoxy)-3-methylsulfonyl-N-(1-methyltetrazol-5-yl)benzamide] | 5 (5=80-100%) | 5 (5=80-100%) | 5 (5=80-100%) | 5 (5=80-100%) | 5 (5=80-100%) | 1 (1=0-19%) | 5 (5=80-100%) | 5 (5=80-100%) | 5 (5=80-100%) | 5 (5=80-100%) | (%) phytotoxicity observed, AMARE (AMARE; rate 15 g/ha): 100%; (%) phytotoxicity observed, AMARE (AMARE; rate 30 g/ha): 100%; (%) phytotoxicity observed, SETFA (SETFA; rate 15 g/ha): 80%; (%) phytotoxicity observed, SETFA (SETFA; rate 30 g/ha): 90%; (%) phytotoxicity observed, ABUTH (ABUTH; rate 15 g/ha): 90%; (%) phytotoxicity observed, ABUTH (ABUTH; rate 30 g/ha): 100%; (%) phytotoxicity observed, ZEAMX (ZEAMX/maize; rate 15 g/ha): 0%; (%) phytotoxicity observed, ZEAMX (ZEAMX/maize; rate 30 g/ha): 0%; (%) phytotoxicity observed, DIGSA (DIGSA; rate 15 g/ha): 80%; (%) phytotoxicity observed, DIGSA (DIGSA; rate 30 g/ha): 80%; (%) phytotoxicity observed, ECHCG (ECHCG; rate 15 g/ha): 90%; (%) phytotoxicity observed, ECHCG (ECHCG; rate 30 g/ha): 90%; (%) phytotoxicity observed, IPOHE (IPOHE; rate 15 g/ha): 100%; (%) phytotoxicity observed, IPOHE (IPOHE; rate 30 g/ha): 100%
3 | CC(C)S(=O)(=O)c1c(OC(F)F)ccc(C(=O)Nc2nnnn2C)c1Cl [Compound 1.054] | 4 (4=60-79%) | 4 (4=60-79%) | 4 (4=60-79%) | 4 (4=60-79%) | 4 (4=60-79%) | 4 (4=60-79%) | 5 (5=80-100%) | 5 (5=80-100%) | 5 (5=80-100%) | 5 (5=80-100%) | –
4 | CCSc1c(OC(F)(F)F)ccc(C(=O)Nc2nnnn2C)c1Cl [Compound 1.021] | 5 (5=80-100%) | 5 (5=80-100%) | 5 (5=80-100%) | 4 (4=60-79%) | 5 (5=80-100%) | 3 (3=40-59%) | 5 (5=80-100%) | 4 (4=60-79%) | 5 (5=80-100%) | 5 (5=80-100%) | –
5 | CCS(=O)(=O)c1cc(C(=O)Nc2nnc(C)o2)ccc1OC(F)(F)F [Compound 2.009] | 4 (4=60-79%) | 5 (5=80-100%) | 4 (4=60-79%) | 5 (5=80-100%) | 5 (5=80-100%) | 2 (2=20-39%) | 5 (5=80-100%) | 5 (5=80-100%) | 5 (5=80-100%) | 5 (5=80-100%) | –
6 | CC[S+]([O-])c1c(OCC(F)(F)F)ccc(C(=O)Nc2nnnn2C)c1Cl (stereo not drawn) [Compound 1.036] | 5 (5=80-100%) | 5 (5=80-100%) | 5 (5=80-100%) | 5 (5=80-100%) | 5 (5=80-100%) | 4 (4=60-79%) | 5 (5=80-100%) | 5 (5=80-100%) | 5 (5=80-100%) | 5 (5=80-100%) | –
7 | CCn1nnnc1NC(=O)c1ccc(OC(F)F)c(S(=O)(=O)CC)c1Cl [Compound 1.049] | 4 (4=60-79%) | 5 (5=80-100%) | 5 (5=80-100%) | 5 (5=80-100%) | 5 (5=80-100%) | 5 (5=80-100%) | 5 (5=80-100%) | 5 (5=80-100%) | 5 (5=80-100%) | 5 (5=80-100%) | –
8 | CCS(=O)(=O)c1c(OC(F)F)ccc(C(=O)Nc2nnc(C)o2)c1C [Compound 2.014] | 4 (4=60-79%) | 5 (5=80-100%) | 5 (5=80-100%) | 5 (5=80-100%) | 5 (5=80-100%) | 5 (5=80-100%) | 5 (5=80-100%) | 5 (5=80-100%) | 5 (5=80-100%) | 5 (5=80-100%) | –
9 | CCCSc1c(OC(F)F)ccc(C(=O)Nc2nnnn2CC)c1Cl [Compound 1.067] | 4 (4=60-79%) | 4 (4=60-79%) | 5 (5=80-100%) | 5 (5=80-100%) | 4 (4=60-79%) | 2 (2=20-39%) | 5 (5=80-100%) | 4 (4=60-79%) | 5 (5=80-100%) | 4 (4=60-79%) | –
